In US10011572B2, “Monocyclic isoxazolines as inhibitors of cholesterol ester transfer protein” (Merck Sharp & Dohme Corp., priority 2014, dated 2018):
Like-named read-outs stand apart in the source and are kept apart here.

Molecular target: T1, endogenous CETP from serum (Homo sapiens, UniProt P11597)
T1 construct: yielding a concentration of approximately 15 nM endogenous CETP in the assay; from tissue; host or cells: human serum
T1 sequence (P11597 18-493): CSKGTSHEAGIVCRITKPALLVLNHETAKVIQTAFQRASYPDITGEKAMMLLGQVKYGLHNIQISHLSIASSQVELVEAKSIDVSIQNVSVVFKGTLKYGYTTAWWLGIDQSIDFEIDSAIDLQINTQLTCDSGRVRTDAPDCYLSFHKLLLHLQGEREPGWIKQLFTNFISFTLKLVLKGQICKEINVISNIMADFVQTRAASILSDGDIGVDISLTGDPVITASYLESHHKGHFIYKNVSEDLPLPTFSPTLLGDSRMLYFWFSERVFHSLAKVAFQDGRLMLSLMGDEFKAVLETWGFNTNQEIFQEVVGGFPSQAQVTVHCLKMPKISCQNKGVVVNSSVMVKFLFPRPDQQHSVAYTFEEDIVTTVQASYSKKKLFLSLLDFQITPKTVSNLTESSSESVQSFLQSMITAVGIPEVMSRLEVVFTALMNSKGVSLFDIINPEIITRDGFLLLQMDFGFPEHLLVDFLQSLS
Test: RTA assay in 95% human serum (in vitro radioactive assay of CETP-catalyzed CE and TG transfer, endogenous CETP)
Format: biochemical
Method: In Vitro Radioactive Assays of CETP-Catalyzed CE and TG Transfer (RTA Assay)
Reagents and sources are: [3H] cholesteryl oleate (GE #TRK.886), [3H] Triolein (Perkin-Elmer NET-431), Butylated hydroxyl toluene (Aldrich, #D4740-4), DOPC (Sigma, # P6354), Sodium Bromide (Fisher scientific #S255-500), PEG 8000 (Fisher, #BP233-1), and human HDL (Intracel Corp #RP-036).
An in vitro assay for determining IC50's to identify compounds that inhibit CETP transfer activity is performed based on a modification of a published method (Morton and Zilversmit, (1981) A plasma inhibitor of triglyceride and cholesteryl ester transfer activities, J. Biol. Chem. 256(23), 11992-11995). The ability of inhibitors to alter CETP activity is performed using two different assays: one using recombinant CETP and one using an endogenous plasma source of CETP. Both assays measure the transfer of [3H] cholesteryl oleate or [3H] triolein from exogenous LDL to HDL.
Radiolabeled donor particles are generated by first combining 100 μl of 200 μM butylated hydroxyl toluene in CHCl3, 216 μL of 21.57 mM DOPC in EtOH, and either 500 μCi [3H]-triolein (Perkin Elmer #NET-431) or 500 μCi [3H]-cholesteryl oleate (GE #TRK886) in a glass tube. Reagents are mixed, dried under nitrogen, and then resuspended in 2 mL of 50 mM Tris, 27 μM EDTA at pH 7.4. After a brief vortex, the solution is sonicated until clear and mixed with 20 mL of fresh human serum. The mixture is incubated overnight at 37° C. The [3H] labeled LDL substrate is separated at 1.063 g/ml density by sequential ultracentrifugal flotation in NaBr according to the method of Havel, Eder, et al., 1955, and Chapman, Goldstein, et al., 1981. Once isolated the particles are dialyzed 3× in CETP buffer (50 mM Tris, pH 7.4, 100 mM NaCl, 1 mM EDTA). Human HDL is purchased from Intracel and used as the acceptor particles.
Transfer assays are performed in a 96-well v-bottom polypropylene plate. For the RTA using recombinant CETP (2% RTA), an assay cocktail is prepared with the final concentrations 128 μg/mL HDL, 20 nM rCETP, 2% human serum, and 1×CETP buffer. 1 μL of each test compound diluted in DMSO is added to 47 μL of assay cocktail per well and incubated at 37° C. for 1 hour. To initiate the transfer reaction, 2 μL radiolabeled LDL is added. After an additional 60 min of incubation at 37° C., the transfer action is terminated by precipitation of LDL with an equal volume of 20% WN PEG 8000. The plates are centrifuged at 2000 rpm for 30 minutes at 4° C. A 40 μL aliquot of the HDL-containing supernatant is transferred to a Packard Optiplate™ with 200 μL of MicroScint™ 20. After mixing, plates are counted by liquid scintillation. Counts present in the supernatant for blanks (wells containing only HDL acceptor, CETP buffer and DMSO) are subtracted from those containing test compounds and used to correct for non-specific transfer.
For the transfer assay using endogenous CETP from serum (95% RTA), the same procedure is used except that human serum is added such that a final concentration of serum of 95% of the total assay volume is achieved, yielding a concentration of approximately 15 nM endogenous CETP in the assay. This is then combined with HDL and CETP buffer and the reaction proceeds as above and is terminated as described.
Comparison of the counts of samples with inhibitors to an uninhibited (DMSO only) positive control yield a percent inhibition. A plot of percent inhibition vs. log of inhibitor concentration, fit to a Sigmoidal 4 parameter equation is used to calculate IC50.
Starting materials are commercially available or are made using known procedures or as shown below. The examples may be synthesized according to the general schemes provided below and by using the synthetic intermediates that are described. The data reported for the examples below were obtained using the RTA assay in 95% human serum.

[1] = read-out: IC50 (nM) RTA with 95% HS

Row | Compound | IC50 (read-out: IC50 RTA (95% HS)) [nM] | IC50 [1] [nM]
1 | COc1cc(F)c(-c2ccc(C(=O)O)cc2C)cc1-c1ccc(C(F)(F)F)cc1CC1=NO[C@H](c2cc(C(F)(F)F)cc(C(F)(F)F)c2)C1 [Example 1A, (S)-2″-((5-(3,5-bis(trifluoromethyl)phenyl)-4,5-dihydroisoxazol-3-yl)methyl)-6′-fluoro-4′-methoxy-2-methyl-4″-(trifluoromethyl)-[1,1′:3′,1″-terphenyl]-4-carboxylic acid] | 37 | –
2 | COc1cc(F)c(-c2ccc(C(=O)O)cc2C)cc1-c1ccc(C(F)(F)F)cc1CC1=NO[C@@H](c2cc(C(F)(F)F)cc(C(F)(F)F)c2)C1 [Example 1B, (R)-2″-((5-(3,5-bis(trifluoromethyl)phenyl)-4,5-dihydroisoxazol-3-yl)methyl)-6′-fluoro-4′-methoxy-2-methyl-4″-(trifluoromethyl)-[1,1′:3′,1″-terphenyl]-4-carboxylic acid] | 1600 | –
3 | COc1cc(F)c(-c2ccc(-c3n[nH]c(=O)o3)cc2C)cc1-c1ccc(C(F)(F)F)cc1CC1=NO[C@H](c2cc(C(F)(F)F)cc(C(F)(F)F)c2)C1 [Example 2, (S)-5-(2″-((5-(3,5-bis(trifluoromethyl)phenyl)-4,5-dihydroisoxazol-3-yl)methyl)-6′-fluoro-4′-methoxy-2-methyl-4″-(trifluoromethyl)-[1,1′:3′,1″-terphenyl]-4-yl)-1,3,4-oxadiazol-2(3H)-one] | 167 | –
4 | COc1ccc(-c2ccc(C(=O)O)cc2C)cc1-c1ccc(C(F)(F)F)cc1CC1=NO[C@@H](c2cc(C(F)(F)F)cc(C(F)(F)F)c2)[C@H]1C [Example 3A, 2″-(((4S,5R)-5-(3,5-bis(trifluoromethyl)phenyl)-4-methyl-4,5-dihydroisoxazol-3-yl)methyl)-4′-methoxy-2-methyl-4″-(trifluoromethyl)-[1,1′:3′,1″-terphenyl]-4-carboxylic acid] | > 10000 | –
5 | COc1ccc(-c2ccc(C(=O)O)cc2C)cc1-c1ccc(C(F)(F)F)cc1CC1=NO[C@H](c2cc(C(F)(F)F)cc(C(F)(F)F)c2)[C@@H]1C [Example 3B, 2″-(((4R,5S)-5-(3,5-bis(trifluoromethyl)phenyl)-4-methyl-4,5-dihydroisoxazol-3-yl)methyl)-4′-methoxy-2-methyl-4″-(trifluoromethyl)-[1,1′:3′,1″-terphenyl]-4-carboxylic acid] | 293 | –
6 | COc1cc(F)c(C(C)C)cc1-c1ccc(C(F)(F)F)cc1CC1=NO[C@H](c2cc(C(F)(F)F)cc(C(F)(F)F)c2)C1 [Example 4, (5S)-5-[3,5-bis(trifluoromethyl)phenyl]-3-{[4′-fluoro-2′-methoxy-5′-(1-methylethyl)-4-(trifluoromethyl)biphenyl-2-yl]methyl}-4,5-dihydroisoxazole] | – | 1290
7 | COc1ccc(CCC(=O)O)cc1-c1ccc(C(F)(F)F)cc1CC1=NO[C@H](c2cc(C(F)(F)F)cc(C(F)(F)F)c2)C1 [Example 5, 3-[2′-({(5S)-5-[3,5-bis(trifluoromethyl)phenyl]-4,5-dihydroisoxazol-3-yl}methyl)-6-methoxy-4′-(trifluoromethyl)biphenyl-3-yl]propanoic acid] | – | 1500
8 | COc1ncc(-c2ccc(C(=O)O)cc2C)cc1-c1ccc(C(F)(F)F)cc1CC1=NO[C@H](c2cc(C(F)(F)F)cc(C(F)(F)F)c2)C1 [Example 6, 4-{5-[2-({(5S)-5-[3,5-bis(trifluoromethyl)phenyl]-4,5-dihydroisoxazol-3-yl}methyl)-4-(trifluoromethyl)phenyl]-6-methoxypyridin-3-yl}-3-methylbenzoic acid] | – | 537
9 | COc1ncc(-c2ccc(C(=O)O)cc2C)cc1-c1cnc(C(F)(F)F)cc1CC1=NO[C@H](c2cc(C(F)(F)F)cc(C(F)(F)F)c2)C1 [Example 7, (S)-4-[4′-({5-[3,5-bis(trifluoromethyl)phenyl]-4,5-dihydroisoxazol-3-yl}methyl)-2-methoxy-6′-(trifluoromethyl)-3,3′-bipyridin-5-yl]-3-methylbenzoic acid] | – | 4970
